test system: COS-1 cells; assay: In vitro mammalian cytotoxicity assay (Resazurin)

SMILES | In Vitro Cytotoxicity
Cc1cccc(-c2ccc(O)c3c2C[C@@]2(N)C[C@@]4(N)[C@H](N(C)C)C(O)=C(C(N)=O)C(=O)[C@@]4(C#N)C(O)=C2C3=O)n1 [VJ] | ** (toxicities less than 25 μg/mL are represented by **)
CN(C)[C@@H]1C(O)=C(C(N)=O)C(=O)[C@@]2(C#N)C(O)=C3C(=O)c4c(O)cccc4/C(=C\c4ccc5ccccc5c4)[C@@]3(N)[C@H](O)[C@@]12N [DQ] | ** (toxicities less than 25 μg/mL are represented by **)
CN(C)[C@@H]1C(O)=C(C(N)=O)C(=O)[C@@]2(C#N)C(O)=C3C(=O)c4c(O)ccc(C#Cc5ccc([N+](=O)O)cc5)c4C[C@@]3(N)C[C@@]12N [FU] | ** (toxicities less than 25 μg/mL are represented by **)
CN(C)[C@@H]1C(O)=C(C(N)=O)C(=O)[C@@]2(C#N)C(O)=C3C(=O)c4c(ccc(C5C=CCC5)c4O)C(N)[C@@]3(N)[C@H](O)[C@@]12N (stereo partly drawn) [AY] | ** (toxicities less than 25 μg/mL are represented by **)
CCCC(Nc1ccc2c(c1O)C(=O)C1=C(O)[C@]3(C#N)C(=O)C(C(N)=O)=C(O)[C@@H](N(C)C)[C@]3(N)[C@@H](O)[C@]1(N)[C@H]2N)C(=O)OCC (stereo partly drawn) [CG] | ** (toxicities less than 25 μg/mL are represented by **)
CCCCCCc1ccc(O)c2c1C[C@@]1(N)C[C@@]3(N)[C@H](N(C)C)C(O)=C(C(N)=O)C(=O)[C@@]3(C#N)C(O)=C1C2=O [JE] | ** (toxicities less than 25 μg/mL are represented by **)
CCc1cc(CNC(=O)c2cccnc2)c(O)c2c1C[C@@]1(N)C[C@@]3(N)[C@H](N(C)C)C(O)=C(C(N)=O)C(=O)[C@@]3(C#N)C(O)=C1C2=O [IY] | * (toxicities greater than >25 μg/ml are represented by *)
CN(C)c1ccc(-c2ccc3c(c2O)C(=O)C2=C(O)[C@]4(C#N)C(=O)C(C(N)=O)=C(O)[C@@H](N(C)C)[C@]4(N)[C@@H](O)[C@]2(N)[C@H]3O)cc1 [OY] | ** (toxicities less than 25 μg/mL are represented by **)
CN(C)[C@@H]1C(O)=C(C(N)=O)C(=O)[C@@]2(C#N)C(O)=C3C(=O)c4c(O)ccc(-c5ccc(CN6CCCC6)cc5)c4C[C@@]3(N)C[C@@]12N [HM] | * (toxicities greater than >25 μg/ml are represented by *)
CN(C)c1cc(NCc2cc(F)cc(F)c2)c(O)c2c1C[C@@]1(N)C[C@@]3(N)[C@H](N(C)C)C(O)=C(C(N)=O)C(=O)[C@@]3(C#N)C(O)=C1C2=O [TS] | ** (toxicities less than 25 μg/mL are represented by **)
CCC(=O)O[C@H]1[C@@]2(N)C(=C(O)[C@]3(C#N)C(=O)C(C(N)=O)=C(O)[C@@H](N(C)C)[C@]13N)C(=O)c1c(ccc(C(C)(C)C)c1O)[C@@H]2N [BC] | ** (toxicities less than 25 μg/mL are represented by **)
CN(C)[C@@H]1C(O)=C(C(N)=O)C(=O)[C@@]2(C#N)C(O)=C3C(=O)c4c(O)c(C(C)(C)C)cc(-c5cnc6ccccc6c5)c4C[C@@]3(N)C[C@@]12N [OV] | * (toxicities greater than >25 μg/ml are represented by *)
CN(C)c1cc(C#CC(=O)O)c(O)c2c1C[C@@]1(N)C[C@@]3(N)[C@H](N(C)C)C(O)=C(C(N)=O)C(=O)[C@@]3(C#N)C(O)=C1C2=O [HZ] | * (toxicities greater than >25 μg/ml are represented by *)
CN(C)Cc1ccc(-c2ccc(O)c3c2C[C@@]2(N)C[C@@]4(N)[C@H](N(C)C)C(O)=C(C(N)=O)C(=O)[C@@]4(C#N)C(O)=C2C3=O)cc1 [HR] | * (toxicities greater than >25 μg/ml are represented by *)
CC(=O)c1ccc(NC(=O)NCc2cc(N(C)C)c3c(c2O)C(=O)C2=C(O)[C@]4(C#N)C(=O)C(C(N)=O)=C(O)[C@@H](N(C)C)[C@]4(N)C[C@]2(N)C3)cc1 [NA] | * (toxicities greater than >25 μg/ml are represented by *)
CN(C)[C@@H]1C(O)=C(C(N)=O)C(=O)[C@@]2(C#N)C(O)=C3C(=O)c4c(O)ccc(C5CCCC5)c4C[C@@]3(N)C[C@@]12N [JB] | ** (toxicities less than 25 μg/mL are represented by **)
CN(C)c1cc(/C=C/c2ccccc2)c(O)c2c1[C@H](N)[C@]1(N)C(=C(O)[C@]3(C#N)C(=O)C(C(N)=O)=C(O)[C@@H](N(C)C)[C@]3(N)[C@H]1O)C2=O [BH] | ** (toxicities less than 25 μg/mL are represented by **)
CN(C)[C@@H]1C(O)=C(C(N)=O)C(=O)[C@@]2(C#N)C(O)=C3C(=O)c4c(O)cccc4C[C@@]3(N)[C@H](NC(=O)CCN3CCOCC3)[C@@]12N [EZ] | ** (toxicities less than 25 μg/mL are represented by **)
CCOC(=O)C(Cc1ccccc1)NCc1ccc(OC)c(-c2ccc(O)c3c2C[C@@]2(N)C[C@@]4(N)[C@H](N(C)C)C(O)=C(C(N)=O)C(=O)[C@@]4(C#N)C(O)=C2C3=O)c1 (stereo partly drawn) [OB] | ** (toxicities less than 25 μg/mL are represented by **)
CN(C)[C@@H]1C(O)=C(C(N)=O)C(=O)[C@@]2(C#N)C(O)=C3C(=O)c4c(O)ccc(/C=C/c5ccc(Cl)cc5)c4C[C@@]3(N)C[C@@]12N [GV] | * (toxicities greater than >25 μg/ml are represented by *)
CC(C)NCc1ccc(-c2ccc(O)c3c2[C@H](N)[C@]2(N)C(=C(O)[C@]4(C#N)C(=O)C(C(N)=O)=C(O)[C@@H](N(C)C)[C@]4(N)[C@H]2O)C3=O)o1 [QK] | * (toxicities greater than >25 μg/ml are represented by *)
CC(=O)c1ccc(O)c2c1[C@H](N)[C@]1(N)C(=C(O)[C@]3(C#N)C(=O)C(C(N)=O)=C(O)[C@@H](N(C)C)[C@]3(N)[C@H]1O)C2=O [CR] | ** (toxicities less than 25 μg/mL are represented by **)
CCc1cc(F)c(O)c2c1C[C@@]1(N)C[C@@]3(N)[C@H](N(C)C)C(O)=C(C(N)=O)C(=O)[C@@]3(C#N)C(O)=C1C2=O [IR] | ** (toxicities less than 25 μg/mL are represented by **)
CN(C)c1cc(NC(=O)OCC(C)(C)C)c(O)c2c1C[C@@]1(N)C[C@@]3(N)[C@H](N(C)C)C(O)=C(C(N)=O)C(=O)[C@@]3(C#N)C(O)=C1C2=O [DG] | ** (toxicities less than 25 μg/mL are represented by **)
CN(C)[C@@H]1C(O)=C(C(N)=O)C(=O)[C@@]2(C#N)C(O)=C3C(=O)c4c(O)ccc(C#CCc5ccccc5)c4C[C@@]3(N)C[C@@]12N [GZ] | ** (toxicities less than 25 μg/mL are represented by **)
CN(C)[C@@H]1C(O)=C(C(N)=O)C(=O)[C@@]2(C#N)C(O)=C3C(=O)c4c(O)c(CN)cc(-c5ccc(I)cc5)c4C[C@@]3(N)C[C@@]12N [JT] | * (toxicities greater than >25 μg/ml are represented by *)
CCc1cc(CC)c2c(c1O)C(=O)C1=C(O)[C@]3(C#N)C(=O)C(C(N)=O)=C(O)[C@@H](N(C)C)[C@]3(N)C[C@]1(N)C2 [LF] | ** (toxicities less than 25 μg/mL are represented by **)
COC(=O)/C=C/c1cccc(-c2ccc(O)c3c2C[C@@]2(N)C[C@@]4(N)[C@H](N(C)C)C(O)=C(C(N)=O)C(=O)[C@@]4(C#N)C(O)=C2C3=O)c1 [UF] | ** (toxicities less than 25 μg/mL are represented by **)
CCCCC#Cc1cc(N(C)C)c2c(c1O)C(=O)C1=C(O)[C@]3(C#N)C(=O)C(C(N)=O)=C(O)[C@@H](N(C)C)[C@]3(N)C[C@]1(N)C2 [LB] | ** (toxicities less than 25 μg/mL are represented by **)
CC(C)COC(=O)NCc1ccc(O)c2c1C[C@@]1(N)C[C@@]3(N)[C@H](N(C)C)C(O)=C(C(N)=O)C(=O)[C@@]3(C#N)C(O)=C1C2=O [NO] | ** (toxicities less than 25 μg/mL are represented by **)
